Results from patent publication US8362000B2, “Azetidinyl diamides as monoacylglycerol lipase inhibitors” (Janssen Pharmaceutica NV, priority 2009, dated 2013).
Where a chain is given by its changes, count along the chain named. Where two headings read alike, the source gives them in different places.

What was measured:
mutant MGL = target: T1, mutant MGL (Homo sapiens, UniProt Q99685, L169S/L176S); assay: MGL ThermoFluor assay - mutant; type: binding
T1 sequence (Q99685 1-303 L169S/L176S): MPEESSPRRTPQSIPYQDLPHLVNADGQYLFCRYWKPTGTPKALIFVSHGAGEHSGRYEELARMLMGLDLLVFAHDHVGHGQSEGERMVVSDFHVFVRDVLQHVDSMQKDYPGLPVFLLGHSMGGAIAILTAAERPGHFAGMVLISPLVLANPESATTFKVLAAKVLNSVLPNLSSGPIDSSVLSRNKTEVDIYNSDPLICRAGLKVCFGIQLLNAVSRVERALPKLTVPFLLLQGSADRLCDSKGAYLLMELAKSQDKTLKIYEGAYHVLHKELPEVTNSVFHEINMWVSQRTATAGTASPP

[1] = target: T2, purified wild type MGL (wt-MGLL 6H-11-313) (Homo sapiens, UniProt Q99685)
T2 sequence (Q99685 1-303): T1 sequence (Q99685 1-303 L169S/L176S) with S169L, S176L

[2] = compound concentration measured by qNMR, read-out: MGL mutant ThermoFluor qKd (using qNMR conc.)
[3] = ThermoFluor, compound concentration measured by qNMR, read-out: MGL mutant ThermoFluor qKd (using qNMR conc.)
[4] = ThermoFluor, compound concentration measured by qNMR, read-out: MGL mutant ThermoFluor qKd (μM) (using qNMR conc.)

| SMILES | Kd (mutant MGL; [2]) | IC50 [1] | Kd (mutant MGL; [3]) | Kd (mutant MGL; [4]) | Kd (mutant MGL; ThermoFluor concentration-response, read-out: MGL mutant ThermoFluor Kd) |
| --- | --- | --- | --- | --- | --- |
| O=C(c1ccc2c(ccn2Cc2cccnc2)c1)N1CC(N2CCN(C(=O)c3nccs3)CC2)C1 [Cpd 1048] | 0.146 µM | 0.695 µM | – | – | – |
| O=C(c1ccc2nn(CCc3ccc(F)cc3)cc2c1)N1CC(N2CCN(C(=O)c3nccs3)CC2)C1 [Cpd 1050, 2-[2-(4-Fluorophenyl)ethyl]-5-({3-[4-(1,3-thiazol-2-ylcarbonyl)piperazin-1-yl]azetidin-1-yl}carbonyl)-2H-indazole] | 0.085 µM | 0.024 µM | – | – | – |
| O=C(c1ccc2cnn(Cc3ccc(F)cc3)c2c1)N1CC(N2CCN(C(=O)c3nccs3)CC2)C1 [Cpd 1051, 1-(4-Fluorobenzyl)-6-({3-[4-(1,3-thiazol-2-ylcarbonyl)piperazin-1-yl]azetidin-1-yl}carbonyl)-1H-indazole] | 0.175 µM | 0.128 µM | – | – | – |
| O=C(c1ccc2cn(Cc3ccc(F)cc3)nc2c1)N1CC(N2CCN(C(=O)c3nccs3)CC2)C1 [Cpd 1052, 2-(4-Fluorobenzyl)-6-({3-[4-(1,3-thiazol-2-ylcarbonyl)piperazin-1-yl]azetidin-1-yl}carbonyl)-2H-indazole] | 0.065 µM | 0.028 µM | – | – | – |
| Cc1nn(Cc2ccc(Cl)cc2)c2sc(C(=O)N3CC(N4CCN(C(=O)c5nccs5)CC4)C3)cc12 [Cpd 1053] | – | 0.018 µM | 0.247 µM | – | – |
| Cc1ccc(-n2ccc3cc(C(=O)N4CC(N5CCN(C(=O)c6nccs6)CC5)C4)ccc32)nc1 [Cpd 1073, 1-(5-Methylpyridin-2-yl)-5-({3-[4-(1,3-thiazol-2-ylcarbonyl)piperazin-1-yl]azetidin-1-yl}carbonyl)-1H-indole] | – | 0.034 µM | 0.087 µM | – | – |
| O=C(c1ccc(-c2cccc(C(F)(F)F)c2)cc1)N1CC(N2CCN(C(=O)c3ccno3)CC2)C1 [Cpd 1118] | – | 0.016 µM | – | 0.053 µM | – |
| O=C(c1ccc2c(-c3ccccc3)c(-c3ccccc3)[nH]c2c1)N1CC(N2CCN(C(=O)c3nccs3)CC2)C1 [Cpd 1119] | – | 0.017 µM | 0.02 µM | – | – |
| O=C(c1ccc2c(ccn2-c2ccc(F)cn2)c1)N1CC(N2CCN(C(=O)c3nccs3)CC2)C1 [Cpd 1121, 1-(5-Fluoropyridin-2-yl)-5-({3-[4-(1,3-thiazol-2-ylcarbonyl)piperazin-1-yl]azetidin-1-yl}carbonyl)-1H-indole] | – | 0.018 µM | 0.042 µM | – | – |
| O=C(c1ccc(-n2cc(-c3cc(F)cc(F)c3)cn2)cc1)N1CC(N2CCN(C(=O)c3nccs3)CC2)C1 [Cpd 1123] | – | 0.019 µM | 1.35 µM | – | – |
| O=C(c1ccc2c(ccn2-c2ccncc2)c1)N1CC(N2CCN(C(=O)c3nccs3)CC2)C1 [Cpd 1127, 1-Pyridin-4-yl-5-({3-[4-(1,3-thiazol-2-ylcarbonyl)piperazin-1-yl]azetidin-1-yl}carbonyl)-1H-indole] | – | 0.02 µM | 0.098 µM | – | – |
| Cc1ccnc(-n2ccc3cc(C(=O)N4CC(N5CCN(C(=O)c6nccs6)CC5)C4)ccc32)c1 [Cpd 1128, 1-(4-Methylpyridin-2-yl)-5-({3-[4-(1,3-thiazol-2-ylcarbonyl)piperazin-1-yl]azetidin-1-yl}carbonyl)-1H-indole] | – | 0.021 µM | 0.018 µM | – | – |
| Cn1cc(-c2cccc(F)c2)c2ccc(C(=O)N3CC(N4CCN(C(=O)c5nccs5)CC4)C3)cc21 [Cpd 1142] | 0.001 µM | 0.029 µM | – | – | – |
| O=C(c1ccc(-c2cccc(C(F)(F)F)c2)cc1)N1CC(N2CCN(C(=O)c3ccc(Cl)s3)CC2)C1 [Cpd 1143] | – | 0.03 µM | – | 0.07 µM | – |
| O=C(c1ccc(-c2cccc(C(F)(F)F)c2)cc1)N1CC(N2CCN(C(=O)c3ccon3)CC2)C1 [Cpd 1145] | – | 0.031 µM | – | 0.061 µM | – |
| Cc1nn(-c2cccc(C(F)(F)F)c2)c2sc(C(=O)N3CC(N4CCN(C(=O)c5nccs5)CC4)C3)cc12 [Cpd 1146] | – | 0.032 µM | 0.08 µM | – | – |
| Cc1c(C(=O)N2CC(N3CCN(C(=O)c4nccs4)CC3)C2)[nH]c2ccc(-c3cccnc3F)cc12 [Cpd 1149, 5-(2-Fluoropyridin-3-yl)-3-methyl-2-({3-[4-(1,3-thiazol-2-ylcarbonyl)piperazin-1-yl]azetidin-1-yl}carbonyl)-1H-indole] | – | 0.035 µM | – | 0.004 µM | – |
| O=C(c1ccc2nc(-c3cccc(C(F)(F)F)c3)oc2c1)N1CC(N2CCN(C(=O)c3nccs3)CC2)C1 [Cpd 1158, 6-({3-[4-(1,3-Thiazol-2-ylcarbonyl)piperazin-1-yl]azetidin-1-yl}carbonyl)-2-[3-(trifluoromethyl)phenyl]-1,3-benzoxazole] | – | 0.042 µM | – | – | 0.008 µM |
| O=C(c1ccc2nc(-c3ccccn3)sc2c1)N1CC(N2CCN(C(=O)c3nccs3)CC2)C1 [Cpd 1165] | – | 0.051 µM | – | 0.09 µM | – |
| O=C(c1ccc(-c2cccc(C(F)(F)F)c2)cc1)N1CC(N2CCN(C(=O)c3cnco3)CC2)C1 [Cpd 1169] | – | 0.055 µM | – | 0.053 µM | – |
| COc1cncc(-c2ccc3[nH]c(C(=O)N4CC(N5CCN(C(=O)c6nccs6)CC5)C4)c(C)c3c2)c1 [Cpd 1175] | – | 0.066 µM | – | 0.01 µM | – |
| O=C(c1ccc2c(ccn2-c2ccc(Cl)cn2)c1)N1CC(N2CCN(C(=O)c3cscn3)CC2)C1 [Cpd 1180, 1-(5-Chloropyridin-2-yl)-5-({3-[4-(1,3-thiazol-4-ylcarbonyl)piperazin-1-yl]azetidin-1-yl}carbonyl)-1H-indole] | – | 0.075 µM | 0.019 µM | – | – |

Continued, values first:

| Kd (mutant MGL; [2]) | IC50 [1] | Kd (mutant MGL; [3]) | Kd (mutant MGL; [4]) | Kd (mutant MGL; ThermoFluor concentration-response, read-out: MGL mutant ThermoFluor Kd) | SMILES |
| --- | --- | --- | --- | --- | --- |
| 0.05 µM | 0.01 µM | – | – | – | O=C(c1ccc2c(cnn2CCc2ccc(F)cc2)c1)N1CC(N2CCN(C(=O)c3nccs3)CC2)C1 [Cpd 1049, 1-[2-(4-Fluorophenyl)ethyl]-5-({3-[4-(1,3-thiazol-2-ylcarbonyl)piperazin-1-yl]azetidin-1-yl}carbonyl)-1H-indazole] |
| – | 0.006 µM | – | 0.016 µM | – | O=C(c1ccc(-c2cccc(C(F)(F)F)c2)cc1)N1CC(N2CCN(C(=O)C3CC3)CC2)C1 [Cpd 1057] |
| 0.02 µM | 0.008 µM | – | – | – | Cc1cc(C(=O)N2CC(N3CCN(C(=O)c4cscn4)CC3)C2)cc2ccn(-c3ccc(F)cc3)c12 [Cpd 1076] |
| – | 0.009 µM | – | 0.005 µM | – | O=C(c1ccc(-c2cccc(C(F)(F)F)c2)cc1)N1CC(N2CCN(C(=O)c3ccc(Cl)o3)CC2)C1 [Cpd 1078] |
| – | 0.009 µM | 0.272 µM | – | – | O=C(c1ccc2c(ccn2-c2ccc(F)cc2)c1)N1CC(N2CCN(C(=O)C(F)(F)F)CC2)C1 [Cpd 1079, 1-(4-Fluorophenyl)-5-({3-[4-(trifluoroacetyl)piperazin-1-yl]azetidin-1-yl}carbonyl)-1H-indole] |
| – | 0.009 µM | – | 0.006 µM | – | O=C(c1ccc2c(cnn2-c2ccc(C(F)(F)F)cc2)c1)N1CC(N2CCN(C(=O)c3nccs3)CC2)C1 [Cpd 1080] |
| – | 0.009 µM | – | 0.008 µM | – | O=C(c1ccc(-c2cccc(C(F)(F)F)c2)cc1)N1CC(N2CCN(C(=O)c3ncco3)CC2)C1 [Cpd 1085] |
| – | 0.009 µM | – | 0.023 µM | – | O=C(c1ccc(-c2cccc(C(F)(F)F)c2)cc1)N1CC(N2CCN(C(=O)c3cc(Br)cs3)CC2)C1 [Cpd 1087] |
| – | 0.011 µM | – | 0.012 µM | – | O=C(c1ccc(-c2cccc(C(F)(F)F)c2)cc1)N1CC(N2CCN(C(=O)c3cocn3)CC2)C1 [Cpd 1094] |
| – | 0.016 µM | – | 0.046 µM | – | O=C(c1ccc(-c2cccc(C(F)(F)F)c2)cc1)N1CC(N2CCN(C(=O)C3CC3(F)F)CC2)C1 (stereo not drawn) [Cpd 1112] |
| – | 0.016 µM | – | 0.005 µM | – | COc1cc(-n2ccc3cc(C(=O)N4CC(N5CCN(C(=O)c6nccs6)CC5)C4)ccc32)ccc1C#N [Cpd 1115] |
